Reference: patent US9149038B2, “4-amino-6-(heterocyclic)picolinates and 6-amino-2-(heterocyclic)pyrimidine-4-carboxylates and their use as herbicides” (Dow AgroSciences LLC, priority 2013, dated 2015)
Like-named read-outs stand apart in the source and are kept apart here.

System: Direct Seeded Rice and weed species
Test: Postemergence herbicidal activity in direct seeded rice, visual rating after 20-22 days and probit GR20/GR50/GR80/GR90 (Table 14)
Type: in vivo
Conditions: for pest or weed control at 17.5 g/ha / pest or weed control at 35 g/ha / pest or weed control at 70 g/ha: post-emergence, 504 h, postemergence; for pest or weed control at 17.5 g/ha: 17.5 g ai/ha; for pest or weed control at 35 g/ha: 35 g ai/ha; for pest or weed control at 70 g/ha: 70 g ai/ha
Excerpt: Herbicidal evaluations were made visually on a scale of 0 to 100 where 0 represents no activity and 100 represents complete plant death. Seeds or nutlets of the desired test plant species were planted in a soil matrix prepared by mixing a loam soil (43 percent silt, 19 percent clay, and 38 percent sand, with a pH of about 8.1 and an organic matter content of about 1.5 percent) and river sand in an 80 to 20 ratio. The soil matrix was contained in plastic pots with a surface area of 139.7 cm^2. When required to ensure good germination and healthy plants, a fungicide treatment and/or other chemical or physical treatment was applied. The plants were grown for 10-17 d in a greenhouse with an approximate 14-h photoperiod which was maintained at about 29° C. during the day and 26° C. during the night. Nutrients and water were added on a regular basis and supplemental lighting was provided with overhead metal halide 1000-Watt lamps as necessary. The plants were employed for testing when they reached the second or third true leaf stage. A weighed amount, determined by the highest rate to be tested, of each test compound was placed in 25 mL glass vials and dissolved in a volume of 97:3 v/v acetone-DMSO to obtain 12× stock solutions. […] The concentrated stock solutions were added to the spray solutions so that the final acetone and DMSO concentrations were 16.2% and 0.5%, respectively. Spray solutions were diluted to the appropriate final concentrations with the addition of 10 mL of an aqueous mixture of 1.5% (v/v) Agri-dex crop oil concentrate. The final spray solutions contained 1.25% (v/v) Agri-dex crop oil concentrate. Compound requirements are based upon a 12 mL application volume at a rate of 187 L/ha. Formulated compounds were applied to the plant material with an overhead Mandel track sprayer equipped with […] nozzles calibrated to deliver 187 L/ha over an application area of 0.503 square meters (m^2) at a spray height of 18 inches (43 cm) above average plant canopy height. Control plants were sprayed in the same manner with the solvent blank. The treated plants and control plants were placed in a greenhouse as described above and watered by sub-irrigation to prevent wash-off of the test compounds. After 20-22 days, the condition of the test plants, compared with that of the untreated plants, was determined visually and scored on a scale of 0 to 100 percent where 0 corresponds to no injury and 100 corresponds to complete kill and are presented as indicated in Table 4. By applying the well-accepted probit analysis as described by J. Berkson in Journal of the American Statistical Society, 48, 565 (1953) and by D. Finney in “Probit Analysis” Cambridge University Press (1952), herbicidal injury of a specific compound at various rates can be used to calculate GR20, GR50, GR80 and GR90 values, which are defined as growth reduction factors that correspond to the effective dose of herbicide required to provide plant growth reduction (GR) of 20 percent, 50 percent, 80 percent and 90 percent, respectively. Probit analysis was applied to data collected from multiple dose rates of individual compounds utilizing the procedures explained in the following examples. The data for some of the dose rates and analysis of all of the dose rates are captured in the following tables.

[1] = BRAPP (broadleaf signalgrass, Brachiaria platyphylla), read-out: Visual Growth Reduction (%) 21 Days After Application BRAPP
[2] = CYPDI (small-flower flatsedge, Cyperus difformis), read-out: Visual Growth Reduction (%) 21 Days After Application CYPDI
[3] = CYPES (yellow nutsedge, Cyperus esculentus), read-out: Visual Growth Reduction (%) 21 Days After Application CYPES
[4] = CYPIR (rice flatsedge, Cyperus iria), read-out: Visual Growth Reduction (%) 21 Days After Application CYPIR
[5] = DIGSA (large crabgrass, Digitaria sanguinalis), read-out: Visual Growth Reduction (%) 21 Days After Application DIGSA
[6] = ECHCG (barnyardgrass, Echinochloa crus-galli), read-out: Visual Growth Reduction (%) 21 Days After Application ECHCG
[7] = ECHCO (junglerice, Echinochloa colonum), read-out: Visual Growth Reduction (%) 21 Days After Application ECHCO
[8] = LEFCH (Chinese sprangletop, Leptochloa chinensis), read-out: Visual Growth Reduction (%) 21 Days After Application LEFCH
[9] = ORYSJ (Oryza sativa, rice crop), read-out: Visual Growth Reduction (%) 21 Days After Application ORYSJ
[10] = ORYSK (Oryza sativa, rice crop), read-out: Visual Growth Reduction (%) 21 Days After Application ORYSK
[11] = SCPJU (Japanese bulrush, Schoenoplectus juncoides Roxb.), read-out: Visual Growth Reduction (%) 21 Days After Application SCPJU
[12] = SEBEX (hemp sesbania, Sesbania exaltata), read-out: Visual Growth Reduction (%) 21 Days After Application SEBEX

For `COc1c(C(=O)O)nc(-c2ccc3c(c2)OC(F)(F)O3)c(F)c1N` [Compound 25], the “GR50 BRAPP” value (BRAPP (Brachiaria platyphylla), probit analysis, dose for 50 percent growth reduction) was 4 g ai/ha, the “GR80 BRAPP” value (BRAPP (Brachiaria platyphylla), probit analysis, dose for 80 percent growth reduction) was 9 g ai/ha and the “GR90 BRAPP” value (BRAPP (Brachiaria platyphylla), probit analysis, dose for 90 percent growth reduction) was 13 g ai/ha. For the same molecule, the “GR50 CYPDI” value (CYPDI (Cyperus difformis), probit analysis, dose for 50 percent growth reduction) was 0.04 g ai/ha, the “GR80 CYPDI” value (CYPDI (Cyperus difformis), probit analysis, dose for 80 percent growth reduction) was 1 g ai/ha and the “GR90 CYPDI” value (CYPDI (Cyperus difformis), probit analysis, dose for 90 percent growth reduction) was 2 g ai/ha. The “GR50 CYPES” value (CYPES (Cyperus esculentus), probit analysis, dose for 50 percent growth reduction) was 0.04 g ai/ha, the “GR80 CYPES” value (CYPES (Cyperus esculentus), probit analysis, dose for 80 percent growth reduction) was 1 g ai/ha and the “GR90 CYPES” value (CYPES (Cyperus esculentus), probit analysis, dose for 90 percent growth reduction) was 1 g ai/ha. For the same molecule, the “GR50 CYPIR” value (CYPIR (Cyperus iria), probit analysis, dose for 50 percent growth reduction) was 2 g ai/ha, the “GR80 CYPIR” value (CYPIR (Cyperus iria), probit analysis, dose for 80 percent growth reduction) was 5 g ai/ha and the “GR90 CYPIR” value (CYPIR (Cyperus iria), probit analysis, dose for 90 percent growth reduction) was 9 g ai/ha. For the same molecule, the “GR50 DIGSA” value (DIGSA (Digitaria sanguinalis), probit analysis, dose for 50 percent growth reduction) was 27 g ai/ha, the “GR80 DIGSA” value (DIGSA (Digitaria sanguinalis), probit analysis, dose for 80 percent growth reduction) was 2530 g ai/ha and the “GR90 DIGSA” value (DIGSA (Digitaria sanguinalis), probit analysis, dose for 90 percent growth reduction) was 27000 g ai/ha. The “GR50 ECHCG” value (ECHCG (Echinochloa crus-galli), probit analysis, dose for 50 percent growth reduction) was 0.025 g ai/ha, the “GR80 ECHCG” value (ECHCG (Echinochloa crus-galli), probit analysis, dose for 80 percent growth reduction) was 1 g ai/ha and the “GR90 ECHCG” value (ECHCG (Echinochloa crus-galli), probit analysis, dose for 90 percent growth reduction) was 3 g ai/ha. For the same molecule, the “GR50 ECHCO” value (ECHCO (Echinochloa colonum), probit analysis, dose for 50 percent growth reduction) was 2 g ai/ha, the “GR80 ECHCO” value (ECHCO (Echinochloa colonum), probit analysis, dose for 80 percent growth reduction) was 4 g ai/ha and the “GR90 ECHCO” value (ECHCO (Echinochloa colonum), probit analysis, dose for 90 percent growth reduction) was 6 g ai/ha. The “GR50 LEFCH” value (LEFCH (Leptochloa chinensis), probit analysis, dose for 50 percent growth reduction) was 175 g ai/ha, the “GR80 LEFCH” value (LEFCH (Leptochloa chinensis), probit analysis, dose for 80 percent growth reduction) was 463 g ai/ha and the “GR90 LEFCH” value (LEFCH (Leptochloa chinensis), probit analysis, dose for 90 percent growth reduction) was 770 g ai/ha. For the same molecule, the “GR20 ORYSJ” value (ORYSJ (Oryza sativa, rice crop), probit analysis, dose for 20 percent growth reduction) was 1 g ai/ha, the “GR20 ORYSK” value (ORYSK (Oryza sativa, rice crop), probit analysis, dose for 20 percent growth reduction) was 3 g ai/ha and the “GR50 SCPJU” value (SCPJU (Schoenoplectus juncoides Roxb.), probit analysis, dose for 50 percent growth reduction) was 0.0001 g ai/ha. For the same molecule, the “GR80 SCPJU” value (SCPJU (Schoenoplectus juncoides Roxb.), probit analysis, dose for 80 percent growth reduction) was 0.0001 g ai/ha, the “GR90 SCPJU” value (SCPJU (Schoenoplectus juncoides Roxb.), probit analysis, dose for 90 percent growth reduction) was 0.0001 g ai/ha and the “GR50 SEBEX” value (SEBEX (Sesbania exaltata), probit analysis, dose for 50 percent growth reduction) was 19 g ai/ha. The “GR80 SEBEX” value (SEBEX (Sesbania exaltata), probit analysis, dose for 80 percent growth reduction) was 26 g ai/ha, the “GR90 SEBEX” value (SEBEX (Sesbania exaltata), probit analysis, dose for 90 percent growth reduction) was 30 g ai/ha and the pest or weed control at 17.5 g/ha [1] was 95 to 100%. The pest or weed control at 35 g/ha [1] was 95 to 100%, the pest or weed control at 70 g/ha [1] was 95 to 100% and the pest or weed control at 17.5 g/ha [2] was 95 to 100%. For the same molecule, the pest or weed control at 35 g/ha [2] was 95 to 100%, the pest or weed control at 70 g/ha [2] was 95 to 100% and the pest or weed control at 17.5 g/ha [3] was 95 to 100%. For the same molecule, the pest or weed control at 35 g/ha [3] was 95 to 100%, the pest or weed control at 70 g/ha [3] was 95 to 100% and the pest or weed control at 17.5 g/ha [4] was 85 to 94%. The pest or weed control at 35 g/ha [4] was 95 to 100%, the pest or weed control at 70 g/ha [4] was 95 to 100% and the pest or weed control at 17.5 g/ha [5] was 30 to 44%. The pest or weed control at 35 g/ha [5] was 60 to 74%, the pest or weed control at 70 g/ha [5] was 60 to 74% and the pest or weed control at 17.5 g/ha [6] was 95 to 100%. It also gave a pest or weed control at 35 g/ha [6] of 95 to 100%, a pest or weed control at 70 g/ha [6] of 95 to 100% and a pest or weed control at 17.5 g/ha [7] of 95 to 100%. The pest or weed control at 35 g/ha [7] was 95 to 100%, the pest or weed control at 70 g/ha [7] was 95 to 100% and the pest or weed control at 17.5 g/ha [8] was 0 to 29%. The pest or weed control at 35 g/ha [8] was 0 to 29%, the pest or weed control at 70 g/ha [8] was 0 to 29% and the pest or weed control at 17.5 g/ha [9] was 85 to 94%. The pest or weed control at 35 g/ha [9] was 95 to 100%, the pest or weed control at 70 g/ha [9] was 95 to 100% and the pest or weed control at 17.5 g/ha [10] was 85 to 94%. It also gave a pest or weed control at 35 g/ha [10] of 85 to 94%, a pest or weed control at 70 g/ha [10] of 95 to 100% and a pest or weed control at 17.5 g/ha [11] of 95 to 100%. For the same molecule, the pest or weed control at 35 g/ha [11] was 95 to 100%, the pest or weed control at 70 g/ha [11] was 95 to 100% and the pest or weed control at 17.5 g/ha [12] was 0 to 29%. It also gave a pest or weed control at 35 g/ha [12] of 95 to 100% and a pest or weed control at 70 g/ha [12] of 95 to 100%.
